Test results taken from PMC10140010 (Investigational New Drugs, 2023).
Several values for one entry are separate records, joined by “and”; a condition that tells them apart may be missing. Equal entries are not always repeated.

How the values were obtained:
OATP1B1 = target: T1, OATP1B1 (Homo sapiens, UniProt Q9Y6L6); test: Uptake substrate investigation in HEK293 cells expressing transporter; assay type: in vitro ADME; details: for Ratio of uptake transit activity / Uptake transport activity, Net value: OATP1B1-293 vs MOCK293
T1 construct: No ESH6G27; host or cells: HEK293
T1 sequence (Q9Y6L6 1-691): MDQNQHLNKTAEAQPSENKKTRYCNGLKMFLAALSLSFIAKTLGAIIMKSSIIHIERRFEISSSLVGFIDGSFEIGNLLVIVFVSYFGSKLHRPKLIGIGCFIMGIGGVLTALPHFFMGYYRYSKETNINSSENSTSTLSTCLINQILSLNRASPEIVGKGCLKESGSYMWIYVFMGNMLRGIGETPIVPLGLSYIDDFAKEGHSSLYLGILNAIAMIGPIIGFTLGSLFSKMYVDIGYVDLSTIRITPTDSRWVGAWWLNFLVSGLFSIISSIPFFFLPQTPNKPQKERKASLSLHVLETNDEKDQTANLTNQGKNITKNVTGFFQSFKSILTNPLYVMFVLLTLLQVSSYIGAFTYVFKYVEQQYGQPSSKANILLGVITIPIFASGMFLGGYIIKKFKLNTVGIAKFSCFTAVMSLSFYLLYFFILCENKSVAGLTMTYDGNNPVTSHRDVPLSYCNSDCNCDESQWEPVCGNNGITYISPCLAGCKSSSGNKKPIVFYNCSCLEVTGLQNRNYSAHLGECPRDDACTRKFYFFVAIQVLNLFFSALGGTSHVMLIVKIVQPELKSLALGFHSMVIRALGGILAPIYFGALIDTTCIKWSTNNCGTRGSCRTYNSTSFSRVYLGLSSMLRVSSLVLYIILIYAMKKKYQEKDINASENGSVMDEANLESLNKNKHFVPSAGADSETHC

OCT2 = target: T2, OCT2 (Homo sapiens, UniProt O15244); test: as above; assay type: in vitro ADME; details: for Uptake transport activity, Mean / Ratio of uptake transit activity / Uptake transport activity, Net value: Suppl. Table 11; for Ratio of uptake transit activity / Uptake transport activity, Net value: OCT2-293 vs MOCK293
T2 construct: No ESH9G27; host or cells: HEK293
T2 sequence (O15244 1-555): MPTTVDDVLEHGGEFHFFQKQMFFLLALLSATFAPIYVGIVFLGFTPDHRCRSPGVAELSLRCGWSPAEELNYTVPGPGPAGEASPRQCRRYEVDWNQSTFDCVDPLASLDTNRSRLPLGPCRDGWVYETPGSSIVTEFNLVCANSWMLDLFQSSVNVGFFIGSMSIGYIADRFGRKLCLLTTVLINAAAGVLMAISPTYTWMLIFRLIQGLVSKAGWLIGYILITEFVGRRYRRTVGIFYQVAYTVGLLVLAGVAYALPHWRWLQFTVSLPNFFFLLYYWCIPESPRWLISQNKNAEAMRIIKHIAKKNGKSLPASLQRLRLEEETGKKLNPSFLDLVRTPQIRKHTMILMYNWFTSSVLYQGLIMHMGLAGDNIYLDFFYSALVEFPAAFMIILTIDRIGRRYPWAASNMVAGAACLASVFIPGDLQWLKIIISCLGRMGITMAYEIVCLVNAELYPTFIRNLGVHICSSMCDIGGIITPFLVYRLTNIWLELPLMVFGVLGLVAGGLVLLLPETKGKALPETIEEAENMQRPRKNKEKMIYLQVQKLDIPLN

[1] = MOCK293, test substrate 10 μM, no inhibitor, pre-test
[2] = OATP1B1-293, test substrate 10 μM, no inhibitor, pre-test
[3] = test substrate 10 μM, no inhibitor, pre-test

COc1cc(N2CCC3(CCN(C)CC3)CC2)ccc1Nc1ncc(Cl)c(Nc2ccccc2P(C)(C)=O)n1 [Iruplinalkib]
uptake transport activity ratio, OATP1B1 (OATP1B1; 30 µM, 3 µM, 0.3 µM, HEK293): less than two
uptake substrate of OATP1B1 (OATP1B1; HEK293): not an uptake substrate
Uptake transport activity, Mean (OATP1B1; MOCK293 (OATP1B1 set), 0.3 μM, Suppl. Table 11): 7.468 pmol/mg protein/min
Uptake transport activity, Mean (OATP1B1; MOCK293 (OATP1B1 set), 3 μM, Suppl. Table 11): 54.18 pmol/mg protein/min
Uptake transport activity, Mean (OATP1B1; MOCK293 (OATP1B1 set), 30 μM, Suppl. Table 11): 601.2 pmol/mg protein/min
Uptake transport activity, Mean (OATP1B1; [1]): 102.0 pmol/mg protein/min
Uptake transport activity, Repeat 1 / Repeat 2 (OATP1B1; [1]): 100.4 pmol/mg protein/min and 103.6 pmol/mg protein/min
Uptake transport activity, Mean (OATP1B1; OATP1B1-293, 0.3 μM, Suppl. Table 11): 8.227 pmol/mg protein/min
Uptake transport activity, Mean (OATP1B1; OATP1B1-293, 3 μM, Suppl. Table 11): 46.74 pmol/mg protein/min
Uptake transport activity, Mean (OATP1B1; OATP1B1-293, 30 μM, Suppl. Table 11): 564.7 pmol/mg protein/min
Uptake transport activity, Mean (OATP1B1; [2]): 55.08 pmol/mg protein/min
Uptake transport activity, Repeat 1 / Repeat 2 (OATP1B1; [2]): 50.74 pmol/mg protein/min and 59.41 pmol/mg protein/min
Ratio of uptake transit activity (OATP1B1; 0.3 μM, Suppl. Table 11): 1.10
Uptake transport activity, Net value (OATP1B1; 0.3 μM, Suppl. Table 11): 0.759 pmol/mg protein/min
Ratio of uptake transit activity (OATP1B1; 3 μM, Suppl. Table 11): 0.86
Uptake transport activity, Net value (OATP1B1; 3 μM, Suppl. Table 11): -7.440 pmol/mg protein/min
Ratio of uptake transit activity (OATP1B1; 30 μM, Suppl. Table 11): 0.94
Uptake transport activity, Net value (OATP1B1; 30 μM, Suppl. Table 11): -36.47 pmol/mg protein/min
Ratio of uptake transit activity (OATP1B1; [3]): 0.54
Uptake transport activity, Net value (OATP1B1; [3]): -46.9 pmol/mg protein/min
uptake transport activity ratio, OCT2 (OCT2; 30 µM, 3 µM, 0.3 µM, HEK293): less than two
uptake substrate of OCT2 (OCT2; HEK293): not an uptake substrate
Uptake transport activity, Mean (OCT2; MOCK293 (OCT2 set), 0.3 μM): 7.280 pmol/mg protein/min
Uptake transport activity, Mean (OCT2; MOCK293 (OCT2 set), 3 μM): 80.35 pmol/mg protein/min
Uptake transport activity, Mean (OCT2; MOCK293 (OCT2 set), 30 μM): 999.8 pmol/mg protein/min
Uptake transport activity, Mean (OCT2; OCT2-293, 0.3 μM): 8.178 pmol/mg protein/min
Uptake transport activity, Mean (OCT2; OCT2-293, 3 μM): 88.23 pmol/mg protein/min
Uptake transport activity, Mean (OCT2; OCT2-293, 30 μM): 1165.9 pmol/mg protein/min
Ratio of uptake transit activity (OCT2; 0.3 μM): 1.12
Uptake transport activity, Net value (OCT2; 0.3 μM): 0.90 pmol/mg protein/min
Ratio of uptake transit activity (OCT2; 3 μM): 1.10
Uptake transport activity, Net value (OCT2; 3 μM): 7.88 pmol/mg protein/min
Ratio of uptake transit activity (OCT2; 30 μM): 1.17
Uptake transport activity, Net value (OCT2; 30 μM): 166.05 pmol/mg protein/min
